What was measured:
MLL LSC = assay: Colony formation and differentiation of MLL LSC with PARPi, LiCl or combination; type: cell-based, mouse; details: seven days; 8 mM LiCl, 1 μM Olaparib
Experimental: Colonies were scored 6-7 days after plating. For other in vitro studies, mouse leukemic cells and primary AML cell lines were subjected to continuously Olaparib (1 μM) or LiCl (8 mM) treatment in liquid culture for whole duration as indicated in the figures or figure legends. For human leukemic cell lines, experiments were performed as described above with 5 μM Olaparib. 1×10^5 cells were cytospun for 5 min at 300 g onto glass slides. Slides were then stained with May-Grunwald solution (Sigma-Aldrich) for 3 min at room temperature. After washing in water, they were incubated for 20 min in Giemsa solution (Sigma-Aldrich) (1:20 in water). Slides were washed again in water before being mounted with Mowiol. Cells were counted in at least 5 fields for each slide, for a total of over 100 cells per condition. NBT reduction assay were performed to determine myeloid differentiation. 0.1% of NBT (final concentration) was added to the liquid culture or semi-solid methocult and incubated at 37° C. CO2 incubator for 3 hrs and 12 hrs, respectively. Cells were then washed in PBS and the differentiated cells were indicated by the deposition of dark blue insoluble formazan (NBT positive cells) and the percentage of differentiated cells were counted under microscopy. At least 200 cells were counted in most of the cases.

[1] = test system: MLL-AF9 transformed cells; assay: In vitro drug treatment of primary murine hematopoietic cells transformed by MLL-AF9 (RTTA); type: cell-based, mouse
Experimental: Transduction using concentrated viral supernatant expressing the oncogene of interest was carried out by centrifugation (spinoculation) at 800 g at 32° C. for 2 hours in the presence of 5 μg ml^-1 polybrene (Sigma-Aldrich). Cells were subsequently plated in 1% methylcellulose medium ([…]; Stem Cell Technologies) containing 20 ngml^-1 SCF, 10 ngml^-1 IL-3, 10 ngml^-1 IL-6 and 10 ngml^-1 granulocyte macrophage colony-stimulating factor (GM-CSF) and appropriate selection antibiotic. Colonies were counted after 7 days of culture and replated every 6-7 days at 5×103-1.5×10^4 cell density. Re-plating was performed weekly to generate primary cell lines for further analysis. After the third or fourth round of plating, cells were cultured in R20/20 medium (RPMI 1640, 20% FCS, 20% WEHI-conditioned medium, 2 mM L-glutamine, 100 U/ml penicillin, and 100 μg/ml streptomycin) supplemented with 20 ngml^-1 stem cell factor (SCF), 10 ngml^-1 interleukin (IL)-3, and 10 ngml^-1 IL-6 to establish cell lines. All recombinant murine cytokines were from PeprotechEC. […] Colonies were scored 6-7 days after plating. For other in vitro studies, mouse leukemic cells and primary AML cell lines were subjected to continuously Olaparib (1 μM) or LiCl (8 mM) treatment in liquid culture for whole duration as indicated in the figures or figure legends. For human leukemic cell lines, experiments were performed as described above with 5 μM Olaparib. Cells were cytospun onto a glass slide at 400 g for 5 minutes and then fixed for 10 minutes with 2% formaldehyde/0.2% glutaraldehyde (Sigma Aldrich). Cells were then washed with PBS, and then incubated at 37° C. for at least 2 hours with a staining solution (30 mM Citric Acid/Phosphate buffer, 5 mM K4Fe(CN)6, 5 mM K3Fe(CN)6, 150 mM NaCl, 2 mM MgCl2, 1 mg/ml X-Gal) (All reagents from Sigma-Aldrich)62. Cells were counted in at least 5 fields for each slide, for a total of over 100 cells. The percentage of senescent cells was calculated by the percentage of the number of blue cell in the field. Cells were cytospun onto a glass slide at 400 g for 5 minutes and then fixed for 30 minutes in 4% PFA and permeabilized and blocked in 0.8% Tx-100, 10% FBS/1% BSA (Sigma-Aldrich) in PBS for 15 min at room temperature. […] Cells were counted in at least 5 fields for each slide, for a total of over 100 cells per condition. […] Cells were counted in at least 5 fields for each slide, for a total of over 100 cells per condition. […] Cells were then washed in PBS and the differentiated cells were indicated by the deposition of dark blue insoluble formazan (NBT positive cells) and the percentage of differentiated cells were counted under microscopy. At least 200 cells were counted in most of the cases.

MLL-AF9 LSC = assay: C57Bl6 mice transplanted with pretreated MLL-AF9 LSC, PARPi and GSK3i treatment; type: in vivo, mouse
Experimental: For mouse MLL-AF9 LSC in vivo studies involving PARPi and GSK3i, MLL-AF9 LSC were pretreated in R20/20 with 4 mM LiCl or 1 uM Olaparib or combination for 3 days. Equal number 0.2×10^6 of live cells were transplanted into sublethally irradiated C57Bl6 mice. Continuous Olaparib and LiCO3 treatment was commenced on the day after irradiation and injection of cells. Mice were given 0.4% lithium carbonate containing diet (Harlan Laboratory) along with Olaparib by IP every other day for 4 weeks. The engraftment of mouse donor cells was defined as CD45.1+/CD45.2− by FACS.

[2] = C57Bl6 mice, MLL-AF9 wild-type leukemia, cells pre-treated 3 days, then in vivo treatment 4 weeks

`O=C(c1cc(Cc2n[nH]c(=O)c3ccccc23)ccc1F)N1CCN(C(=O)C2CC2)CC1` [Olaparib, 4-[(3-[(4-cyclopropylcarbonyl)piperazin-4-yl]carbonyl)-4-fluorophenyl]methyl(2H)-phthalazin-1-one] was tested, and the “colony forming ability / leukemic cell growth” value (MLL LSC) was “ineffective”, the “impact on colony forming ability” value ([1]; 1 uM Olaparib, methylcellulose 7 days) was “little impact” and the “differentiation, G1 arrest, senescence, apoptosis effects” value ([1]; PARPi treatment) was “none of these effects were observed”. For the same compound, the “Rad51 recruitment to DNA damage sites (RAD51 foci)” value ([1]; PARPi treatment for 6 hours) was “able to form RAD51 foci”, the “BM Engraftment (%)” value (MLL-AF9 LSC; [2]) was 80.23 ± 23.70% and the “Disease Latency (days; median)” value (MLL-AF9 LSC; [2]) was 45.8 days. For the same compound, the “Hematopoietic Liver Engraftment (%)” value (MLL-AF9 LSC; [2]) was 76.5 ± 19.21%, the “Hematopoietic Spleen Engraftment (%)” value (MLL-AF9 LSC; [2]) was 65.07 ± 43.46% and the “Liver” value (MLL-AF9 LSC; [2]) was 2.868 ± 0.4089 g. For the same compound, the “Spleen” value (MLL-AF9 LSC; [2]) was 1.218 ± 0.3266 g and the survival (MLL-AF9 LSC; pretreated MLL LSC in syngeneic mice, 80 days of observation, controls succumbed within 8 weeks) was “did not significantly extend the survival”.

— patent publication US10799501B2, “Combination of an inhibitor of PARP with an inhibitor of GSK-3 or DOT1L” (King's College London, priority 2015, dated 2020)
